According to patent US20100063009A1, “Pharmaceutical Combination Comprising 6-Dimethylaminomethyl-1-(3-methoxy-phenyl)-cyclohexane-1.3-diol and an NSAID” (GRUENENTHAL GmbH, priority 2008, published 2010):
Values joined by “and” are separate entries in the source; they are usually repeats but may differ in a detail not shown here. Equal values may be shown once. Where a name gives a salt, the structure may show the parent alone. Read-outs that look alike come from different tables or passages of the source.

Test system: inflamed rat hind paw
Assay: Randall-Selitto test in rats (carrageenan-induced inflammatory pain, mechanical nociceptive threshold)
Assay type: in vivo
Conditions: for ED50: Rattus norvegicus; for timepoint of peak effect: substance applied alone, A i.v., NSAIDs i.p.
Experimental: The weight ratios of the components (a) and (b) that will lead to a supra-additive effect (synergistic effect) of the inventive pharmaceutical composition may be determined via the test of Randall and Selitto as described in Arch. Int. Pharmacodyn., 1957, 111: 409 to 419, which is a model for inflammatory pain. The respective part of the literature is hereby incorporated by reference and forms part of the present disclosure.
Acute inflammation is induced by an intraplantar injection of 0.1 ml of a carrageenan solution (0.5% in distilled water) into one hind paw. The mechanical nociceptive threshold is measured 4 hours after carrageenan injection using an Algesiometer (Ugo Basile, Italy). The device generates a mechanical force with a linear increase over time. The force is applied to the dorsal surface of the inflamed rat hind paw via a cone-shaped stylus with a rounded tip (2 mm tip diameter). The nociceptive threshold is defined as the force (in grams) at which the rat vocalises (cut-off force 250 g). The mechanical nociceptive threshold is measured at different timepoints after the drug or vehicle administration. The antinociceptive and antihyperalgesic activity of the tested substance is expressed as percentages of the maximal possible effect (% MPE). The group size is n=10.
The interactions studies presented herein were performed using equieffective doses of the two components, calculated from the ratio of the respective ED50 values of the components if administered alone.
The route of administration was intravenous (i.v.) for (1RS,3RS,6RS)-6-dimethylaminomethyl-1-(3-methoxy-phenyl)-cyclohexane-1,3-diol hydrochloride (A) and intraperitoneal (i.p.) for the NSAIDs diclofenac, ibuprofen, metamizol-sodium and naproxen. […] (diclofenac, ibuprofen) and 45 min p. appl. (naproxen, metamizol-sodium).

[1] = ip, measured at peak effect 30 min (diclofenac, ibuprofen) or 45 min (naproxen, metamizol-sodium) p. appl., n=10, read-out: ED50 of the NSAID applied alone

Structure (SMILES)	ED50 (iv, measured at peak effect 15 min p. appl., 4 h after carrageenan, % MPE, n=10, 95% range in brackets, read-out: ED50 of A applied alone) [mg/kg]	ED50 of A applied alone (i.v., measured at peak effect 15 min p. appl., 4 h after carrageenan, % MPE, n=10, 95% range in brackets, hydrochloride)	timepoint of peak effect [min p. appl.]	ED50 [1] [mg/kg]	ED50 of the NSAID applied alone (i.p., measured at peak effect 30 min (diclofenac, ibuprofen) or 45 min (naproxen, metamizol-sodium) p. appl., n=10)
COc1cccc([C@@]2(O)C[C@H](O)CC[C@@H]2CN(C)C)c1 (racemic) [A, (1RS,3RS,6RS)-6-dimethylaminomethyl-1-(3-methoxy-phenyl)-cyclohexane-1,3-diol hydrochloride]	15.8	14.5 (13.3-15.6) mg/kg and 14.1 (13.2-15.1) mg/kg	15	–	–
O=C(O)Cc1ccccc1Nc1c(Cl)cccc1Cl [Diclofenac, diclofenac]	–	–	30	146	–
CC(C)Cc1ccc(C(C)C(=O)O)cc1 (centres unmarked) [Ibuprofen]	–	–	30	139	–
Cc1c(N(C)CS(=O)(=O)[O-])c(=O)n(-c2ccccc2)n1C.[Na+] [Metamizol-Sodium, metamizol-sodium]	–	–	45	–	88.1 (77.5-98.3) mg/kg
COc1ccc2cc([C@H](C)C(=O)O)ccc2c1 [Naproxen, naproxen]	–	–	45	164	–
